Experimental data published in ChEMBL document CHEMBL5316313, “Discovery of Novel 3-Phenylpiperidine Derivatives Targeting the β-Catenin/B-Cell Lymphoma 9 Interaction as a Single Agent and in Combination with the Anti-PD-1 Antibody for the Treatment of Colorectal Cancer” (J Med Chem, 2023).
pIC50: −log10 of the molar value. Calls of active or inactive are those of the source. No cut-off for these calls is given here.

Tests used:
Beta catenin-BCL9 = biological target: T1, Beta catenin-BCL9 (Mus musculus, UniProt Q02248+Q9D219); test: Inhibition of beta-catenin/BCL9 protein-protein interaction in Wnt-dependent mouse CT26 cells assessed as reduction in Axin2 expression level by qRT-PCR assay; assay type: cell-based
T1 sequence (Q02248 whole entry): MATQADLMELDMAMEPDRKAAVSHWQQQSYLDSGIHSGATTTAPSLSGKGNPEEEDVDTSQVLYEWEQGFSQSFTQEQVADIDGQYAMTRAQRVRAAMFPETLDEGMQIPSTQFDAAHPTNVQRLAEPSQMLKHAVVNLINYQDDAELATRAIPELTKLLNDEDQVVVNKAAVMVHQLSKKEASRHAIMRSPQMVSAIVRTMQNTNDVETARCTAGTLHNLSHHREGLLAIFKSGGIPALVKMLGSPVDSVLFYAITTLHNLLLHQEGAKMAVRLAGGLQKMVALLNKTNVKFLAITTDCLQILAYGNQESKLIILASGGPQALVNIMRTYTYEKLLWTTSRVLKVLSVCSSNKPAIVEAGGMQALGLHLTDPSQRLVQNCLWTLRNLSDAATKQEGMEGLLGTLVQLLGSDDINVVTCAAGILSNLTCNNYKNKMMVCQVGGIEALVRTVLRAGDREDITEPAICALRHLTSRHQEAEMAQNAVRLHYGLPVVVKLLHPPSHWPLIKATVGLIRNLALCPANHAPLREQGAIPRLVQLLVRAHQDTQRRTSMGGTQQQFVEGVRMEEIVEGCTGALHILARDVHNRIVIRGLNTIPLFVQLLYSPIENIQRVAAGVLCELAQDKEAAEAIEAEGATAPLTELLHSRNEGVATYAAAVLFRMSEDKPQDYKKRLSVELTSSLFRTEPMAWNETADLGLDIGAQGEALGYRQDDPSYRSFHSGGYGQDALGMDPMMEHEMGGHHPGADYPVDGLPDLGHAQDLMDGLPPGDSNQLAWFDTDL
T1 sequence (Q9D219 whole entry): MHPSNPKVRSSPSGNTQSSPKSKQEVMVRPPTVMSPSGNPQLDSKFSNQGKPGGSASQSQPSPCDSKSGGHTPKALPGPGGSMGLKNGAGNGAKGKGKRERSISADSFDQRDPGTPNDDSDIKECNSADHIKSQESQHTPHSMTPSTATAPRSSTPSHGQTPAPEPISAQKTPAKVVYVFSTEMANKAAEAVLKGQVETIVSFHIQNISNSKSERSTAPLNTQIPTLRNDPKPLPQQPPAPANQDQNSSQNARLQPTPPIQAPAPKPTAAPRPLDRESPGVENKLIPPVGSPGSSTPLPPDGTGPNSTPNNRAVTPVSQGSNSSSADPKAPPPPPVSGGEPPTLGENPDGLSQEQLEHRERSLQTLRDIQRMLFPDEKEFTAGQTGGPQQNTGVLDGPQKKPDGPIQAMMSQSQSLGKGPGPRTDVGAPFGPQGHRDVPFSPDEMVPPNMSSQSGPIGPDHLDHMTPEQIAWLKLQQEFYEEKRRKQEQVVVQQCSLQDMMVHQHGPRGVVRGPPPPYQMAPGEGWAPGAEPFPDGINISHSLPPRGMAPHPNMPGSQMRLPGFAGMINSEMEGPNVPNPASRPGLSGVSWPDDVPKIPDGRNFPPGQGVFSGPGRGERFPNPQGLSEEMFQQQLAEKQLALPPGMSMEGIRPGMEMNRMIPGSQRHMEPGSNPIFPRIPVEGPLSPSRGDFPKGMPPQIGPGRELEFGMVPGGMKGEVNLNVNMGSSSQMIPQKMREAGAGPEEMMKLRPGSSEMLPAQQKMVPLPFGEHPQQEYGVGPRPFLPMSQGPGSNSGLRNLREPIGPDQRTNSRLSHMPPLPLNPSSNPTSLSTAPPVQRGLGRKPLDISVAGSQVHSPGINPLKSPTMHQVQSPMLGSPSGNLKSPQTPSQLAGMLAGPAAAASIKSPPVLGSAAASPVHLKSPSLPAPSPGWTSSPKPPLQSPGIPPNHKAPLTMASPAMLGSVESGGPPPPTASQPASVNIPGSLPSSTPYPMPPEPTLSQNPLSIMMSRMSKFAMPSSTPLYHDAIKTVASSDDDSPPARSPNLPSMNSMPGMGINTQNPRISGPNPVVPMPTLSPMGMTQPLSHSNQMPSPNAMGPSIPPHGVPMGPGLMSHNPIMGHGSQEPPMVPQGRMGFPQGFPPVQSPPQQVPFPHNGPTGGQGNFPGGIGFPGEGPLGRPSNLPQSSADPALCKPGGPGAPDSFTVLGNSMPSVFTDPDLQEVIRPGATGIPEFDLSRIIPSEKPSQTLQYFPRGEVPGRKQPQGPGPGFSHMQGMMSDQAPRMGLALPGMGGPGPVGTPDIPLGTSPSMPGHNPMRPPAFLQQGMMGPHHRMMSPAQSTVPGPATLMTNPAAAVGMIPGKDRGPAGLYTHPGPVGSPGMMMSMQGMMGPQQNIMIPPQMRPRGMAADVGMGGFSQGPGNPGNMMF

CT26 [1] = test: cells; conditions: Mus musculus, CT26, 48 h
HCT-116 = test: cells; conditions: Homo sapiens, HCT-116, 48 h
SW480 = test: cells; conditions: Homo sapiens, SW480, 48 h
A549 = test: cells; conditions: Homo sapiens, A549, 48 h
RKO = test: cells; conditions: Homo sapiens, 48 h
HEK293 = test: cells; conditions: Homo sapiens, HEK293, 48 h
CT26 [2] = test: Induction of apoptosis in Wnt-dependent mouse CT26 cells assessed as viable cells at 10 uM incubated for 24 hrs by Annexin V-Alexa Fluor 647/PI staining based flow cytomtery (Rvb=70.7%); assay type: functional; conditions: read-out: Activity
[3] = Toxicity in BALB/c mouse xenografted with mouse CT26 cells assessed as pathological changes in lung at 30 mg/kg, ip QD in presence of anti-PD-1 antibody cotreatment at 10 mg/kg,ip BIW by hematoxylin and eosin staining based microscopic analysis; assay type: organism-based; conditions: in vivo
[4] = AUC (0 to infinity) in Sprague-Dawley rat at 21 mg/kg, ip and measured upto 24 hrs by LC-MS analysis; assay type: ADME, organism-based; parameters: time < 24 hrs, dose 21 mg/kg, route ip; conditions: in vivo
CT26 [5] = test: Synergistic antitumor activity in mouse CT26 cells xenografted in BALB/c mouse assessed as increase in CD8+ T cell infiltration into tumor at 30 mg/kg, ip QD in presence of anti-PD-1 antibody cotreatment at 10 mg/kg,ip BIW by flow cytometry; assay type: functional, organism-based

SMILES | pIC50 (Beta catenin-BCL9) | pIC50 (CT26 [1]) | pIC50 (HCT-116) | pIC50 (SW480) | pIC50 (A549) | pIC50 (RKO) | pIC50 (HEK293) | viability at 10 µM (CT26 [2]) | Activity [3] | AUC(0-inf) [4] | Activity (CT26 [5])
O=C1[C@H](Cc2ccc(O)cc2)N2C(=O)CCN(C(=O)NCc3ccccc3)[C@H]2CN1Cc1cccc2ccccc12 | 5.34 | 4.73 | 4.49 | 5.07 | 4.27 | 4.11 | 4.12 |  |  |  | 
CC(C)c1ccc(-c2cccc(S(=O)(=O)N3CCCC(c4cccc(OC(C)(C)C(=O)NS(=O)(=O)c5ccc(C(F)(F)F)cc5)c4)C3)c2)cc1 (stereo not drawn) | 6.18 | 5.32 | 5.03 | 4.79 | < 4.40 | < 4.40 | < 4.40 | 43.8% | Non-Toxic | 17400 ng·h/mL | Active
